Broadly, the IC50 is the point on the concentration scale where inhibition reaches its midpoint.

Chain of SHP2 (Q06124 whole entry, looked up): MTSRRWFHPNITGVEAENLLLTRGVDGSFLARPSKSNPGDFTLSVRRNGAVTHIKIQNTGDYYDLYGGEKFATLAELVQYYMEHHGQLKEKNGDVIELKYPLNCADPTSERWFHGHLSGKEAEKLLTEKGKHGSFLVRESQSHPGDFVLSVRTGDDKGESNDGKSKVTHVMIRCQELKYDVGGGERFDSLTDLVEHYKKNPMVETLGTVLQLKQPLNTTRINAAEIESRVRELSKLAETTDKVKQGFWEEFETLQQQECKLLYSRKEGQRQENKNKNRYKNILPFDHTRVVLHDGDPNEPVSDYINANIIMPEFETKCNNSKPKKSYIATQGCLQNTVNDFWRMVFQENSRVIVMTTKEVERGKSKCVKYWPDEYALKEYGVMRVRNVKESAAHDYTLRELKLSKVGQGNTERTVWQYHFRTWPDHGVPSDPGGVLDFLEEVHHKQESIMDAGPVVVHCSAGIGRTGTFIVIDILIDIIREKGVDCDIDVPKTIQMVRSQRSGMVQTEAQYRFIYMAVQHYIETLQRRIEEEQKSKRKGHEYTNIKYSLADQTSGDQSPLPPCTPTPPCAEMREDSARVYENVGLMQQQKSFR

One assay has as its target SHP2 (Homo sapiens (Human), UniProt Q06124). Nature of the assay: SHP2-catalyzed hydrolysis of p-nitrophenyl phosphate (pNPP). It counts as biochemical.
Details: not given
Here is the method: Libraries 11a-d were screened at ˜5 μM for SHP2 inhibitors without further purification. The ability of the library components to inhibit the SHP2-catalyzed hydrolysis of p-nitrophenyl phosphate (pNPP) was evaluated at pH 7.0 and 25° C. More particularly, the phosphatase activity of SHP2 was assayed using p-nitrophenyl phosphate (pNPP) as a substrate at 25° C. in 50 mM 3,3-dimethylglutarate buffer, pH 7.0, containing 1 mM EDTA with an ionic strength of […] adjusted by NaCl. The libraries were screened in a 96-well format at 5 μM compound concentration. […] The nonenzymatic hydrolysis of pNPP was corrected by measuring the control without the addition of enzyme. The amount of product p-nitrophenol was determined from the absorbance at 405 nm detected by a Spectra MAX340 microplate spectrophotometer (Molecular Devices, Sunnyvale, Calif.) using a molar extinction coefficient of 18,000 M^−1 cm^−1. […] IC50 values for selected resynthesized and purified hits were calculated by fitting the absorbance at 405 nm versus inhibitor concentration to the following equation: AI/A0=IC50/(IC50+[I]) where AI is the absorbance at 405 nm of the sample in the presence of the inhibitor; A0 is the absorbance at 405 nm in the absence of inhibitor; and [I] is the concentration of the inhibitor.
As for `Cn1c(-c2cccc(NC(=O)C(=O)Nc3ccc(-c4ccccc4)cc3)c2)c(I)c2cc(C(=O)O)c(O)cc21` [11a-2, 2-(3-(2-([1,1′-biphenyl]-4-ylamino)-2-oxoacetamido)phenyl)-6-hydroxy-3-iodo-1-methyl-1H-indole-5-carboxylic acid], the “SHP2 inhibition, in words” value is recorded as “strongly inhibited”. `Cn1c(-c2cccc(NC(=O)C(=O)Nc3ccc(OCc4ccccc4)c(Cl)c3)c2)c(I)c2cc(C(=O)O)c(O)cc21` [11a-3, 2-(3-(2-((4-(benzyloxy)-3-chlorophenyl)amino)-2-oxoacetamido)phenyl)-6-hydroxy-3-iodo-1-methyl-1H-indole-5-carboxylic acid]: the “SHP2 inhibition, in words” value is reported as “submicromolar”. Same read-out and setting: then `Cn1c(-c2cccc(NC(=O)C(=O)Nc3cccc(-c4ccccc4)c3)c2)c(I)c2cc(C(=O)O)c(O)cc21` [11a-5, 2-(3-(2-([1,1′-biphenyl]-3-ylamino)-2-oxoacetamido)phenyl)-6-hydroxy-3-iodo-1-methyl-1H-indole-5-carboxylic acid], with “strongly inhibited”; and `Cn1c(-c2cccc(NC(=O)C(=O)Nc3cccc(OCc4ccccc4)c3)c2)c(I)c2cc(C(=O)O)c(O)cc21` [11a-6, 2-(3-(2-((3-(benzyloxy)phenyl)amino)-2-oxoacetamido)phenyl)-6-hydroxy-3-iodo-1-methyl-1H-indole-5-carboxylic acid], with “submicromolar”. Consider `Cn1c(-c2cccc(NC(=O)CCC(=O)Nc3ccc(-c4ccsc4)cc3)c2)c(I)c2cc(C(=O)O)c(O)cc21` [11c-1, 6-hydroxy-3-iodo-1-methyl-2-(3-(4-oxo-4-((4-(thiophen-3-yl)phenyl)amino)butanamido)phenyl)-1H-indole-5-carboxylic acid], for which the “IC50 for SHP2, times higher than that of 11a-1” value is given as “more than 10 times”.

The same assay, now with this note: pNPP substrate, pH 7.0, 25° C.
In turn, `Cn1c(-c2cccc(NC(=O)CCC(=O)O)c2)c(I)c2cc(C(=O)O)c(O)cc21` [10c, 2-(3-(3-carboxypropanamido)phenyl)-6-hydroxy-3-iodo-1-methyl-1H-indole-5-carboxylic acid] returned an IC50 of 56 µM.

Molecule `Cn1c(-c2cccc(NC(=O)C(=O)Nc3ccc(-c4ccccc4)cc3)c2)c(I)c2cc(C(=O)O)c(O)cc21` [11a-2, 2-(3-(2-([1,1′-biphenyl]-4-ylamino)-2-oxoacetamido)phenyl)-6-hydroxy-3-iodo-1-methyl-1H-indole-5-carboxylic acid] came in with an IC50 of 0.62 ± 0.05 µM. Consider `Cn1c(-c2cccc(NC(=O)C(=O)Nc3ccc(OCc4ccccc4)c(Cl)c3)c2)c(I)c2cc(C(=O)O)c(O)cc21` [11a-3, 2-(3-(2-((4-(benzyloxy)-3-chlorophenyl)amino)-2-oxoacetamido)phenyl)-6-hydroxy-3-iodo-1-methyl-1H-indole-5-carboxylic acid], for which the concentration for half-maximal inhibition (IC50) was determined as 0.66 ± 0.03 µM. Molecule `Cn1c(-c2cccc(NC(=O)C(=O)Nc3nc4ccc(Br)cc4s3)c2)c(I)c2cc(C(=O)O)c(O)cc21` [11a-4, 2-(3-(2-((6-bromobenzo[d]thiazol-2-yl)amino)-2-oxoacetamido)phenyl)-6-hydroxy-3-iodo-1-methyl-1H-indole-5-carboxylic acid] showed an IC50 of 0.76 ± 0.11 µM. On the same count and under the same terms, for `Cn1c(-c2cccc(NC(=O)C(=O)Nc3cccc(-c4ccccc4)c3)c2)c(I)c2cc(C(=O)O)c(O)cc21` [11a-5, 2-(3-(2-([1,1′-biphenyl]-3-ylamino)-2-oxoacetamido)phenyl)-6-hydroxy-3-iodo-1-methyl-1H-indole-5-carboxylic acid] the value was 0.77 ± 0.15 µM; for `Cn1c(-c2cccc(NC(=O)C(=O)Nc3cccc(OCc4ccccc4)c3)c2)c(I)c2cc(C(=O)O)c(O)cc21` [11a-6, 2-(3-(2-((3-(benzyloxy)phenyl)amino)-2-oxoacetamido)phenyl)-6-hydroxy-3-iodo-1-methyl-1H-indole-5-carboxylic acid], 0.86 ± 0.14 µM. Still for that read-out and setting: then `Cn1c(-c2cccc(NC(=O)C(=O)N3CCc4cc(Br)ccc43)c2)c(I)c2cc(C(=O)O)c(O)cc21` [11a-7, 2-(3-(2-(5-bromoindolin-1-yl)-2-oxoacetamido)phenyl)-6-hydroxy-3-iodo-1-methyl-1H-indole-5-carboxylic acid], with 1.05 ± 0.09 µM.

On to `Cn1c(-c2cccc(NC(=O)C(=O)Nc3ccc(I)cc3)c2)c(I)c2cc(C(=O)O)c(O)cc21` [11a-8, 6-hydroxy-3-iodo-2-(3-(2-((4-iodophenyl)amino)-2-oxoacetamido)phenyl)-1-methyl-1H-indole-5-carboxylic acid], for which the IC50 turned out to be 1.2 ± 0.21 µM.

The molecule `Cn1c(-c2cccc(NC(=O)C(=O)Nc3ccccc3-c3nc4ccccc4[nH]3)c2)c(I)c2cc(C(=O)O)c(O)cc21` [11a-9, 2-(3-(2-((2-(1H-benzo[d]imidazol-2-yl)phenyl)amino)-2-oxoacetamido)phenyl)-6-hydroxy-3-iodo-1-methyl-1H-indole-5-carboxylic acid] registered a half-inhibitory concentration (IC50) of 1.25 ± 0.06 µM. Turning to `Cn1c(-c2cccc(NC(=O)C(=O)Nc3cccc(Cl)c3)c2)c(I)c2cc(C(=O)O)c(O)cc21` [11a-11, 2-(3-(2-((3-chlorophenyl)amino)-2-oxoacetamido)phenyl)-6-hydroxy-3-iodo-1-methyl-1H-indole-5-carboxylic acid], inhibition was half-maximal at 1.46 ± 0.45 µM (IC50). Take `Cn1c(-c2cccc(NC(=O)C(=O)Nc3ccc(-n4ccnc4)cc3)c2)c(I)c2cc(C(=O)O)c(O)cc21` [11a-12, 2-(3-(2-((4-(1H-imidazol-1-yl)phenyl)amino)-2-oxoacetamido)phenyl)-6-hydroxy-3-iodo-1-methyl-1H-indole-5-carboxylic acid]: the IC50 amounted to 1.49 ± 0.15 µM.

`Cn1c(-c2cccc(NC(=O)C(=O)Nc3ccc(Cl)c(C(F)(F)F)c3)c2)c(I)c2cc(C(=O)O)c(O)cc21` [11a-13, 2-(3-(2-((4-chloro-3-(trifluoromethyl)phenyl)amino)-2-oxoacetamido)phenyl)-6-hydroxy-3-iodo-1-methyl-1H-indole-5-carboxylic acid] yielded a 50% inhibitory concentration (IC50) of 1.76 ± 0.08 µM.

The molecule `Cn1c(-c2cccc(NC(=O)C(=O)Nc3nnc(-c4ccccc4)s3)c2)c(I)c2cc(C(=O)O)c(O)cc21` [11a-14, 6-hydroxy-3-iodo-1-methyl-2-(3-(2-oxo-2-((5-phenyl-1,3,4-thiadiazol-2-yl)amino)acetamido)phenyl)-1H-indole-5-carboxylic acid] came in with an IC50 of 1.79 ± 0.15 µM. Still for that read-out and setting: then `Cn1c(-c2cccc(NC(=O)C(=O)Nc3ccc(F)cc3)c2)c(I)c2cc(C(=O)O)c(O)cc21` [11a-15, 2-(3-(2-((4-fluorophenyl)amino)-2-oxoacetamido)phenyl)-6-hydroxy-3-iodo-1-methyl-1H-indole-5-carboxylic acid], with 1.84 ± 0.09 µM. Still for that read-out and setting: for `Cn1c(-c2cccc(NC(=O)C(=O)Nc3nccs3)c2)c(I)c2cc(C(=O)O)c(O)cc21` [11a-16, 6-hydroxy-3-iodo-1-methyl-2-(3-(2-oxo-2-(thiazol-2-ylamino)acetamido)phenyl)-1H-indole-5-carboxylic acid] the value was 2.31 ± 0.28 µM; for `Cn1c(-c2cccc(NC(=O)C(=O)Nc3cccc(OC(F)(F)F)c3)c2)c(I)c2cc(C(=O)O)c(O)cc21` [11a-17, 6-hydroxy-3-iodo-1-methyl-2-(3-(2-oxo-2-((3-(trifluoromethoxy)phenyl)amino)acetamido)phenyl)-1H-indole-5-carboxylic acid], 2.39 ± 0.15 µM; for `Cn1c(-c2cccc(NC(=O)C(=O)Nc3cccc(Br)c3)c2)c(I)c2cc(C(=O)O)c(O)cc21` [11a-18, 2-(3-(2-((3-bromophenyl)amino)-2-oxoacetamido)phenyl)-6-hydroxy-3-iodo-1-methyl-1H-indole-5-carboxylic acid], 2.73 ± 0.55 µM.

`Cn1c(-c2cccc(NC(=O)C(=O)Nc3cccc(F)c3)c2)c(I)c2cc(C(=O)O)c(O)cc21` [11a-19, 2-(3-(2-((3-fluorophenyl)amino)-2-oxoacetamido)phenyl)-6-hydroxy-3-iodo-1-methyl-1H-indole-5-carboxylic acid] displayed an IC50 of 4.66 ± 0.5 µM. Still for that read-out and setting: then `Cn1c(-c2cccc(NC(=O)C(=O)Nc3cccc(I)c3)c2)c(I)c2cc(C(=O)O)c(O)cc21` [11a-20, 6-hydroxy-3-iodo-2-(3-(2-((3-iodophenyl)amino)-2-oxoacetamido)phenyl)-1-methyl-1H-indole-5-carboxylic acid], with 5.42 ± 1.01 µM; and `Cn1c(-c2cccc(NC(=O)C(=O)Nc3ccc(-c4ccc(C#N)cc4)cc3)c2)c(I)c2cc(C(=O)O)c(O)cc21` [11a-21, 2-(3-(2-((4′-cyano-[1,1′-biphenyl]-4-yl)amino)-2-oxoacetamido)phenyl)-6-hydroxy-3-iodo-1-methyl-1H-indole-5-carboxylic acid], with 0.22 ± 0.01 µM; and `Cn1c(-c2cccc(NC(=O)C(=O)Nc3ccc(-c4cccc(C#N)c4)cc3)c2)c(I)c2cc(C(=O)O)c(O)cc21` [11a-22, 2-(3-(2-((3′-cyano-[1,1′-biphenyl]-4-yl)amino)-2-oxoacetamido)phenyl)-6-hydroxy-3-iodo-1-methyl-1H-indole-5-carboxylic acid], with 0.31 ± 0.02 µM. The molecule `Cn1c(-c2cccc(NC(=O)C(=O)Nc3ccccc3-c3ccc(CO)o3)c2)c(I)c2cc(C(=O)O)c(O)cc21` [11a-23, 6-hydroxy-2-(3-(2-((2-(5-(hydroxymethyl)furan-2-yl)phenyl)amino)-2-oxoacetamido)phenyl)-3-iodo-1-methyl-1H-indole-5-carboxylic acid] returned an IC50 of 0.37 ± 0.01 µM. The same measure, in the same setting: for `Cn1c(-c2cccc(NC(=O)C(=O)Nc3cccc(-c4ccco4)c3)c2)c(I)c2cc(C(=O)O)c(O)cc21` [11a-24, 2-(3-(2-((3-(furan-2-yl)phenyl)amino)-2-oxoacetamido)phenyl)-6-hydroxy-3-iodo-1-methyl-1H-indole-5-carboxylic acid] the value was 0.38 ± 0.01 µM; for `Cn1c(-c2cccc(NC(=O)C(=O)Nc3cccc(-c4ccc(C#N)cc4)c3)c2)c(I)c2cc(C(=O)O)c(O)cc21` [11a-25, 2-(3-(2-((4′-cyano-[1,1′-biphenyl]-3-yl)amino)-2-oxoacetamido)phenyl)-6-hydroxy-3-iodo-1-methyl-1H-indole-5-carboxylic acid], 0.42 ± 0.02 µM; for `Cn1c(-c2cccc(NC(=O)C(=O)Nc3cccc(-c4ccsc4)c3)c2)c(I)c2cc(C(=O)O)c(O)cc21` [11a-26, 6-hydroxy-3-iodo-1-methyl-2-(3-(2-oxo-2-((3-(thiophen-3-yl)phenyl)amino)acetamido)phenyl)-1H-indole-5-carboxylic acid], 0.63 ± 0.04 µM. The same measure, in the same setting: for `Cn1c(-c2cccc(NC(=O)CCC(=O)Nc3ccc(-c4ccsc4)cc3)c2)c(I)c2cc(C(=O)O)c(O)cc21` [11c-1, 6-hydroxy-3-iodo-1-methyl-2-(3-(4-oxo-4-((4-(thiophen-3-yl)phenyl)amino)butanamido)phenyl)-1H-indole-5-carboxylic acid] the value was 2.3 µM; for `Cn1c(-c2cccc(NC(=O)CCC(=O)Nc3ccc(Oc4ccccc4)cc3)c2)c(I)c2cc(C(=O)O)c(O)cc21` [11c-2, 6-hydroxy-3-iodo-1-methyl-2-(3-(4-oxo-4-((4-phenoxyphenyl)amino)butanamido)phenyl)-1H-indole-5-carboxylic acid], 3.6 ± 0.3 µM.

These data come from patent US9522881B2, “Hydroxyindole carboxylic acid based inhibitors for oncogenic Src homology-2 domain containing protein tyrosine phosphatase-2 (SHP2)” (Indiana University Research and Technology Corporation, priority 2013, dated 2016).
